The record followed here is patent US8927227B2, “Method of measuring effects of components on cell reactive oxygen species production” (Colgate-Palmolive Company, priority 2008, dated 2015).

The structures appear in SMILES notation.

The test system of this assay is Human histocytic lymphoma U937 cells. The experiment in a line: Intracellular ROS fluorescence assay (DCF-DA / DHR123) in U937 cells exposed to H2O2 and LPS. Format: cell-based. As for the experimental part: Human histocytic lymphoma U937 cells (ATCC, Manassas, Va.) were initially cultured in RPMI-1640 media (ATCC, Manassas, Va.) containing 10% serum and 1% penicillin, and then transferred at a concentration of 2×10^5 cells/ml into media containing 1 ng/ml PMA for 48 hours at 37° C. The cells were starved overnight in serum-free culture media before exposure to dye.
Cells were washed with PBS buffer twice, and divided into two sets to be incubated with DCF-DA or DHR123 (Calibochem, La Jolla, Calif.) for 30 minutes at 30° C. Cells are washed with PBS twice to remove residual dye. Appropriate experimental controls are also maintained.
Cells are then divided into several groups, and various amounts of a 1% solution of α-tocopherol (Vitamin E), substance 1, or substance 2 is added to each of the groups, and incubated at 37° C. for 15 minutes. Cells then were washed twice with PBS to remove residual amounts of test compounds. ROS agents H2O2 and LPS then were added and incubated for different periods of time. Fluorescence of the cells then were read at excitation 485 nm and emission 530 nm for up to 5 hours.

Consider `Cc1c(C)c2c(c(C)c1O)CC[C@@](C)(CCC[C@H](C)CCC[C@H](C)CCCC(C)C)O2` [α-tocopherol], for which, where the note is “2 ppm active, 2.5 mM hydrogen peroxide, FIG. 2”, the “reduction of oxidative level” value is “approximately 30%”. Also, for the setting “10 ppm and 100 ppm active compared with 2 ppm, 2.5 mM hydrogen peroxide, FIG. 2”, the “capability in scavenging ROS or free radicals” value is “did not show enhanced capability in scavenging ROS or free radicals”. For the same compound, the “cell fluorescence versus cells incubated without test compound” value (two hours of incubation, ROS at 2.5 mM and ROS stimulant, FIG. 1) was “cells incubated in the absence of a test compound but in the presence of the ROS at 2.5 mM and ROS stimulant fluoresce greater”.
